Laboratory results taken from patent US12544373B2, “Treatment of cancer, inflammatory diseases and autoimmune diseases” (Usher III Initiative, Inc., priority 2020, dated 2026).
Where two headings read alike, the source gives them in different places.

Experiments:
Assay type in all cases: cell-based, human
Conditions in all cases: for T/C %: 72 h
[1] = system: SXFS 1301; assay: CellTiter-Blue Cell Viability Assay (Example 2), soft tissue sarcoma
Source text: (§1) The CellTiter-Blue® Cell Viability Assay was used to assess the viability of cells from various cancer cell lines, in the presence or absence of Compound 85 (at different concentrations). This assay provides a homogeneous, fluorometric method for estimating the number of viable cells present in multi-well plates. Viable cells retain the ability to reduce resazurin to resorufin, which is highly fluorescent. […] The fluorescence produced is proportional to the number of viable cells. There is a linear relationship between cell number and fluorescence.
(§2) Cancer cells (see Table 6) were harvested from exponential phase cultures, counted and plated in 96 well flat-bottom microtiter plates, at a cell density 6,000-20,000 cells/well, depending on the cell line's growth rate. The culture medium was supplemented with 10% (v/v) foetal calf serum and 50 μg/mL gentamicin (140 μL/well). Cultures were incubated at 37° C. and 5% CO2 in a humidified atmosphere.
(§3) Compound 85 was serially diluted in DMSO, and five Compound 85 concentrations in half-log increments were used: 0.03 μM, 0.09 μM, 0.30 μM, 1.0 μM, and 3.0 μM. After 24 h, 10 μL of Compound 85 (dissolved in DMSO) or control (DMSO) medium were added, in duplicates, and left on the cells for another 72 h. Compound 85 solutions were added to the assay plates using a Tecan Freedom EVO 200 robotic platform. The DMSO concentration was kept constant at 0.3% v/v across the assay plate.
(§4) After incubation of up to 72 hours, fluorescence (FU) was measured using the EnSpire® multimode plate reader (Perkin Elmer) (excitation λ=570 nm, emission λ=600 nm).
(§5) Cancer cell lines used: Compound 85's anti-cancer effect was tested in 20 human cancer-cell lines representing nine cancer types (Table 6).
(§6) The percentage of viable cells in the presence of Compound 85 (Test condition, T), at different concentrations, are presented in Table 7 and expressed as a percentage of the number of viable cells in the presence of DMSO without Compound 85 (Control condition, C).
(§7) The relative IC50 is determined as the Compound 85 concentration giving a response halfway between the maximum cell viability signal (i.e., a 100% cell viability, no Compound 85 response) and the minimal viability signal (i.e. maximum cell viability inhibition achieved by Compound 85), in a sigmoidal concentration-effect curve.
(§8) The absolute IC50 is determined as the concentration that is associated with a T/C ratio of 50%.

[2] = system: SXFS Hs 729; assay: as above
Source text: as §1, §2, §3, §4, §5, §6, §7, §8

[3] = system: MAXFTN 401; assay: CellTiter-Blue Cell Viability Assay (Example 2), breast
Source text: as §1, §2, §3, §4, §5, §6, §7, §8

[4] = system: MAXFHER BT-474; assay: as above
Source text: as §1, §2, §3, §4, §5, §6, §7, §8

[5] = system: MAXFHER JIMT-1; assay: as above
Source text: as §1, §2, §3, §4, §5, §6, §7, §8

[6] = system: MAXFTN MDA-MB-453; assay: as above
Source text: as §1, §2, §3, §4, §5, §6, §7, §8

## CC(C)(O)Cn1nc(-c2ccccc2)c2c(Cl)c(-c3ccccc3)nnc21 [Compound 85]
[1]
  Absolute IC70: 570 nM
  Relative IC70: 558 nM
[1]; 0.03 μM
  T/C %: 105%
[1]; 0.095 μM
  T/C %: 106%
[1]; 0.3 μM
  T/C %: 102%
[1]; 0.95 μM
  T/C %: 3%
[1]; 3.0 μM
  T/C %: 2%
[1]; read-out: Absolute IC50
  IC50: 501 nM
[1]; read-out: Relative IC50
  IC50: 490 nM
[2]
  Absolute IC70: 808 nM
  Relative IC70: 789 nM
[2]; 0.03 μM
  T/C %: 99%
[2]; 0.095 μM
  T/C %: 99%
[2]; 0.3 μM
  T/C %: 99%
[2]; 0.95 μM
  T/C %: 13%
[2]; 3.0 μM
  T/C %: 7%
[2]; read-out: Absolute IC50
  IC50: 733 nM
[2]; read-out: Relative IC50
  IC50: 724 nM
[3]
  Absolute IC70: 503 nM
  Relative IC70: 500 nM
[3]; 0.03 μM
  T/C %: 99%
[3]; 0.095 μM
  T/C %: 99%
[3]; 0.3 μM
  T/C %: 87%
[3]; 0.95 μM
  T/C %: 3%
[3]; 3.0 μM
  T/C %: 1%
[3]; read-out: Absolute IC50
  IC50: 429 nM
[3]; read-out: Relative IC50
  IC50: 429 nM
[4]
  Absolute IC70: 1316 nM
  Relative IC70: 1010 nM
[4]; 0.3 μM
  T/C %: 99%
[4]; 0.95 μM
  T/C %: 46%
[4]; 3.0 μM
  T/C %: 17%
[4]; read-out: Absolute IC50
  IC50: 886 nM
[4]; read-out: Relative IC50
  IC50: 766 nM
[5]
  Absolute IC70: 957 nM
  Relative IC70: 844 nM
[5]; 0.03 μM
  T/C %: 97%
[5]; 0.095 μM
  T/C %: 97%
[5]; 0.3 μM
  T/C %: 96%
[5]; 0.95 μM
  T/C %: 30%
[5]; 3.0 μM
  T/C %: 14%
[5]; read-out: Absolute IC50
  IC50: 742 nM
[5]; read-out: Relative IC50
  IC50: 702 nM
[6]
  Absolute IC70: 765 nM
  Relative IC70: 763 nM
[6]; 0.03 μM
  T/C %: 101%
[6]; 0.095 μM
  T/C %: 97%
[6]; 0.3 μM
  T/C %: 101%
[6]; 0.95 μM
  T/C %: 3%
[6]; 3.0 μM
  T/C %: 1%
[6]; read-out: Absolute IC50
  IC50: 719 nM
[6]; read-out: Relative IC50
  IC50: 717 nM
